Source: patent US6346539B1, “Treatment of skin conditions” (BTG International Limited, priority 1998, dated 2002)
Marks after values point to notes of the source that are not given here.

What was measured:
Melan-a = assay: Effects of piperine and TPA on growth of Melan-a (panel of cell types); type: cell-based, mouse; settings: piperine 0.1 and 1 μM (FIG. 4)
Method: (§1) Cells of mouse melan-a cell line (passage number 18-24), a first known line of non-tumorigenic pigmented mouse melanocytes were maintained in a flask (Costar, Cambridge, Mass., USA) using RPMI 1640 (ICN, Costa, Mesa, Calif., USA) as a basic medium. For microplate proliferation assays, subconfluent melan-a cultures were trypsinized (0.25% trypsin at 37° C. for 5-10 min) and inoculated with a repeater-pipettor (Finn pipette, Labsystems, Finland) into 96-well microtiter plates (Costar, Cambridge, Mass., USA). The plates were incubated at 37° C. in a 10% CO2, 90% air humidified atmosphere for the stated length of time. At the end of the incubation, an SRB assay was performed. Briefly, cells attached to the bottom of the plate were fixed by addition of cold trichloroacetic acid (TCA, 4° C., Aldrich, Dorset, UK) on the top of the growth medium (final TCA 20% w/v). The plate was placed at 4° C. for 1 hour before being gently washed five times with tap water. It was allowed to dry in air, or aided with a hair dryer to speed up the drying process, then 50 μl of 4% w/v SRB dissolved in 1% acetic acid in water was added to each well for 30 min. […] The plate was shaken for 15 min on a gyratory shaker followed by reading the optical density (OD) at 550 nm in a microplate spectrophotometer (Anthos Labtec HT3, version 1.06). […]

human melanocytes [1] = assay: Proliferation of human melanocytes cultured in petri dishes, haemocytometer count; type: cell-based
Method: (§2) For the second protocol, subconfluent human melanocytes were subcultured in a Ø60 mm petri dishes (28 cm^2, Falcon) with RPMI 1640 basic medium supplemented with FBS (10%), CT (1 nM), bFGF (100 pM) and endothelin 1 (1 nM). The initial plating density was 10,000 cells/cm^2, with 5 ml medium per dish. Cells were incubated for 2-3 hours in 10% CO2, humidified atmosphere, at 37° C., followed by addition of piperine solution in to the dishes, making the final concentrations of 0, 1, 5, 10 and 100 μM. Cells in the above supplemented medium lacking endothelin 1 were also set up as a negative control. Three dishes were used for each treatment and the culture was maintained for 5 days before cells were harvested with trypsinisation and counted with a haemocytometer chamber. For melanin production experiment, the harvested cells were centrifuged and pelleted. After carefully removing the medium, NaOH (1 M) was used to solubilized the cell pellets and optical density read at 475 nm in a Perkin-Elmer UV spectrophotometer (model UV/VIS Lambda 2). The melanin content was calculated by using a regression equation y=0.005+0.005× corresponding to the calibration curve for synthetic melanin.

FM21E Melanoblast = assay: Effects of piperine and TPA on growth of human melanoblasts, SRB assay; type: cell-based
Method: (§3) In order to determine the specificity of piperine, a panel of different cell types were employed to facilitate this investigation. These included melan-a, melan-c, SVK14, CSM, XB2, SC1, B16F10, IM9, CACO2, Swiss 3T3 cell lines and normal human lymphocytes. TPA (20 nM) was also tested on these cells.
Human melanoblasts in culture in this experiment were established from human foetal skin. Subconfluent melanoblasts maintained in MCDB 153 medium supplemented with 10% FBS, 10 ng/ml stem cell factor (SCF) and 1 nM endothelin 3 were subcultured and inoculated into 96-well microplate with 6×10^3 cells/100 μl/well. After incubation in the 10% CO2, humidified atmosphere, at 37° C. for 3-4 hours to allow the attachment of the cells on the plate, piperine dissolved in MeOH and water was added into the wells. The final concentrations of piperine were 1, 5, 10, 100 μM, with TPA (20 nM) as positive control. Six replicates were used in each group of treatment, with 12 wells used for vehicle control. The incubation was conducted for 5 days before cells were harvested by fixing with cold trichloroacetic acid (TCA, at 4° C., final concentration 20% v/v), and evaluated for cell number using an SRB assay. […] Growth in the presence of piperine and TPA was expressed as % of control incubations containing no piperine or TPA. […]

B16F10 mouse melanoma = assay: Effects of piperine and TPA on growth of B16F10 (panel); type: cell-based
Method: as §3

human melanocytes [2] = assay: Melanin production of human melanocytes cultured in petri dishes; type: cell-based; settings: 5 days
Method: as §2

FM21E human melanocytes = assay: Effects of piperine and TPA on growth of human melanocytes, 24-well plate, SRB assay; type: cell-based
Method: as §3
For the first protocol, subconfluent human melanocytes maintained in a Ø100 mm petri dish were subcultured into two 24-well plates (Falcon) using basic culture medium of RPMI 1640 supplemented with FBS (10%), bFGF (100 pM), CT (1 nM) and endothelin 1 (1 nM). The initial plating density was 20,000 cells/cm^2 (38,200 cells/well) with each well containing 1000 μl medium. After incubation in a 10% CO2, humidified atmosphere, at 37° C. for 2-3 hours to allow the attachment of the cells, piperine in 500 μl medium was added into wells to made up final concentrations of 0, 1, 5, 10 and 100 μM. Cells only in the medium with above supplement lacking of endothelin 1 were also set up as negative control. Six replicates were used in each group of treatment, and culture was incubated for 5 days before the cells were harvested by fixing with cold TCA (final concentration 20%) and processed with SRB assay. The solubilized SRB dye solution was transferred to a 96-well plate for optical density reading.

melan-a cells [3] = assay: Proliferation of melan-a cells counted with haemocytometer; type: cell-based, mouse; set-up: unit not given here; settings: 20 nM TPA; 4 days
Method: Melan-a cells were plated in petri dishes (Ø35 mm, Nunclon, Denmark) with a plating density of 2×10^4/ml and Piper nigrum extract at concentrations of 0.01 and 0.1 mg/ml. A negative control (cells in medium only) and positive TPA (20 nM) control were also set up. After 4 days the cells in each dish were harvested and counted with haemocytometer.

melan-a cells [4] = assay: Effect of RO-31-8220 on growth of melan-a cells with piperine and TPA, SRB assay; type: cell-based, mouse; settings: 4 days
Method: as §1

Question: With O=C(/C=C/C=C/c1ccc2c(c1)OCO2)N1CCCCC1 [Piperine, (E,E)-1-[5-(1,3-benzodioxol-5-yl)-1-oxo-2,4-pentadienyl]piperidine] as the molecule, how does the “effect on melan-a proliferation” value (Melan-a) read?
Answer: significantly stimulated melan-a proliferation

Question: And the “cell number relative to ET1 (1 nM) control” value (human melanocytes [1]; 5 μM piperine for 5 days, petri dishes)?
Answer: over twice as many

Question: What about the “Cell no. (×10^−4) ± SD after cultured for 5 days” value (from here on “Cell no. (×10^−4) ± SD”) (human melanocytes [1]; ET1 (1 nM) + piperine (1 μM)) of the same molecule?
Answer: 60.83 ± 16.78 ×10^−4

Question: What about the “Cell no. (×10^−4) ± SD” value (human melanocytes [1]; ET1 (1 nM) + piperine (5 μM)) of the same molecule?
Answer: 78.96 ± 5.63 ×10^−4

Question: What about the “Cell no. (×10^−4) ± SD” value (human melanocytes [1]; ET1 (1 nM) + piperine (10 μM)) of the same molecule?
Answer: 64.79 ± 13.47 ×10^−4

Question: And the “Cell no. (×10^−4) ± SD” value (human melanocytes [1]; ET1 (1 nM) + piperine (100 μM))?
Answer: 61.04 ± 10.04 ×10^−4

Question: What about the activity at 1 µM (human melanocytes [1]; Homo sapiens, Melanocyte, 120 h, ET1 (1 nM) + piperine (1 μM), 5 days, read-out: % of control (ET1 1 nM)) of the same molecule?
Answer: 169%

Question: And the activity at 5 µM (human melanocytes [1]; Homo sapiens, Melanocyte, 120 h, ET1 (1 nM) + piperine (5 μM), 5 days, read-out: % of control (ET1 1 nM))?
Answer: 219%

Question: What about the activity at 10 µM (human melanocytes [1]; Homo sapiens, Melanocyte, 120 h, ET1 (1 nM) + piperine (10 μM), 5 days, read-out: % of control (ET1 1 nM)) of the same molecule?
Answer: 180%

Question: And the activity at 100 µM (human melanocytes [1]; Homo sapiens, Melanocyte, 120 h, ET1 (1 nM) + piperine (100 μM), 5 days, read-out: % of control (ET1 1 nM))?
Answer: 169%

Question: What about the “more cell yield compared to vehicle control” value (FM21E Melanoblast; 100 μM piperine for 5 days) of the same molecule?
Answer: 34%

Question: What about the “effect on B16 mouse melanoma cell line” value (B16F10 mouse melanoma) of the same molecule?
Answer: inhibitory effects

Question: And the “Melanin content/10^4 cells” value (human melanocytes [2]; ET1 (1 nM) + piperine (1 μM))?
Answer: 0.42 ± 0.03 μg

Question: What about the “OD reading ± SD at 475 nm” value (human melanocytes [2]; ET1 (1 nM) + piperine (1 μM)) of the same molecule?
Answer: 0.134 ± 0.014

Question: What about the “Melanin content/10^4 cells” value (human melanocytes [2]; ET1 (1 nM) + piperine (5 μM)) of the same molecule?
Answer: 0.334 ± 0.01 μg

Question: What about the “Melanin content/10^4 cells” value (human melanocytes [2]; ET1 (1 nM) + piperine (10 μM)) of the same molecule?
Answer: 0.41 ± 0.07 μg

Question: And the “Melanin content/10^4 cells” value (human melanocytes [2]; ET1 (1 nM) + piperine (100 μM))?
Answer: 0.46 ± 0.001 μg

Question: What about the more cells yielded (FM21E human melanocytes; 10 μM piperine for 5 days, 24-well plate, ET1 1 nM) of the same molecule?
Answer: 36%

Question: What about the “effect on the growth of human melanocytes” value (FM21E human melanocytes; piperine 100 μM, 24-well plate) of the same molecule?
Answer: inhibitory effect

Question: What does the source list for “tetradecanoyl phorbol acetate [TPA, reference compound]”?
Answer: cell number (melan-a cells [3]): 5.0*; more cell yield compared to vehicle control (FM21E Melanoblast; TPA 20 nM for 5 days): over 50%; effect on the growth of human melanocytes (FM21E human melanocytes; TPA 20 nM in the presence of 1 nM endothelin 1): not able to stimulate cell growth

Question: What does the source list for Cn1cc(C2=C(c3cn(CCCSC(=N)N)c4ccccc34)C(=O)NC2=O)c2ccccc21 [RO-31-8220]?
Answer: effect of RO-31-8220 on the proliferant effects of piperine and TPA on melan-a cells (melan-a cells [4]; RO-31-8220 0.1-100 nM, piperine 1 μM, TPA 20 nM): effectively inhibited; cytotoxic effect of RO-31-8220 alone on melan-a cells (melan-a cells [4]; concentrations up to 100 nM): did not have significant cytotoxic effect
